Assay [1] deals with NK cells and macrophages in tumor tissues. Kind of assay: Immunocytochemistry and flow cytometry of tumor-infiltrating immune cells. The format is in vivo, rat. On the procedure: (§1) Thin paraffin sections (5 μm) of tumors were stained using the ABC Elite Vectastain Kit (Vector Labs) according to the manufacturer's instructions using various primary antibodies. Details of all primary antibodies used are described above. In addition, cell proliferation-associated antigen (Ki-67; 1:200) were purchased from Abcam. After the primary antibody incubation and PBS wash, sections were incubated with peroxidase-coupled anti-rabbit Ig ImmPRESS reagent (Vector Laboratories, Inc.). Antigen localization was achieved by using the 3,3′-diaminobenzidine-peroxidase reaction, and sections were dehydrated, and cover slipped. To evaluate the immunohistochemical staining, sections were photographed using a Nikon-TE 2000 inverted microscope. Intensity of staining was categorized as negative and strongly positive (27). Brown-stained spots are immuno positive cells. Data are means±SEM obtained from 3 serial sections of 5 to 6 animals in each group.
Tumor-infiltrating immune cells were collected from MDA-MB-231 cell xenograft tumors to examine and compare the immune cell population among control and drug-treated animals. Briefly, single-cell suspensions of tumor tissue were achieved by mincing the tissue with a scalpel blade using a crisscross method, ground with 1-ml of ACK lysing buffer to remove red blood cells. The cell suspensions were filtered through a 70-micron sieve and then washed with PBS. Cells from the tumor were collected and dispersed with 100 μl of PBS and stained by the addition of fluorescence-conjugated antibodies. For flow cytometry experiments, single-cell suspension derived from tumors, PBMC, and splenocytes were used to characterize the immune cell population. Fluorophore-conjugated antibodies were used to detect surface markers of specific cell types and markers are as follows: for NK cells (CD161a (10/78)), tissue macrophage (RT1B (OX-6)), dendritic cells (CD103 (OX-62)), peripheral monocytes (CD11b (ED8)), B cells (CD45RA (OX-33)), and DAPI (Sigma) was used to exclude dead cells.
Immune cells from the tumor, PBMC, and splenocyte samples were examined by following the gating strategy as described below. First, side scatter area (SSC-A) versus forward scatter area (FSC-A) were used to exclude cellular debris, then forward scatter height (FSC-H) versus FSC-A were used to select single cells. Single cells were sub-gated using DAPI viability dye and a further live cell population was used to select markers. Expression of a particular cell surface marker in a specific population of cells was identified and represented as single parameter histograms. Unstained cells and compensation beads (BD Biosciences, CA) were used to set voltages and create single stain negative and positive controls. Additional negative controls (isotype control and fluorescence minus one (FMO)) were also used to determine any non-specific binding in the present study. The data collected from each sample were exported and analyzed using FlowJo™ version 10.7.
(Flow cytometry measures light scatter and fluorescence of single cells or particles in a stream.)

Assay [2] relates to MDA-MB-231, MDA-MB-468, and T47D cells. Kind of assay: Matrigel cell invasion assay. Particulars: 100 μM, 48 hours, Matrigel coated membrane. The format is cell-based, human. On the procedure: The invasive and metastatic potential of cell lines was tested by transmigration through an extracellular matrix (ECM) by a previously described method (26). In brief, the upper chamber of the matrix in 24-well Matrigel invasion chamber plates (BD BioCoat™ Matrigel™ Chamber, BD Biosciences, San Jose, CA) was loaded with 5×10^4 cells in 500 μl of the appropriate medium (cell numbers established by preliminary experiments). After 24 hours, medium containing 1% FBS was used on both the lower and upper surfaces. One day later, the medium of the upper chamber was replaced with 500 μl medium containing 1% FBS without any drug treatment. The medium was replaced with medium containing 10% FBS and 25 ng/ml EGF in the lower chamber. The effect of beta-adrenergic and opioidergic drugs was tested by adding a 100 μM concentration of these drugs alone or in combination or vehicle alone in both lower and upper chambers. After 48 hours of incubation, the noninvasive cells that remained within the inserts were removed with a cotton swab. Cells that traversed through the Matrigel and the polycarbonate filter (8-μm pore size) attached to the lower surface were stained with 0.5% crystal violet for calculating the invasion index. Cells were visualized and photographed as described in the migration assay. The photographs were used to count invasive cells in Adobe Photoshop.

In assay [3] the test system is MDA-MB-231-cell-derived xenografts. As to the kind of experiment: Histopathology, immunohistochemistry and western blot of xenograft tumors. Particulars: for level of E-cadherin in tumors / level of N-cadherin in tumors / levels of Snail, Slug, and Twist in tumors: immunoblotting; for level of CC3 in tumor tissue / levels of Bcl-xL and Bcl-2 in tumor tissue: western blot. The assay is classed as in vivo, rat. On the procedure:
At the end of the experiment, a portion of tumor tissues was fixed in 10% neutral buffered formalin overnight and embedded in paraffin, was cut into 5-μm-thick sections, and stained with H&E according to previous publications (8). Representative areas of tumor were analyzed for the presence of tumor cells and photographs were captured under a light microscope (20× magnification) as previously described.
For protein analyses, tumor tissues from in vivo experiments, enriched NK cells from the spleen, and NK-92 MI cancer cell co-incubated samples were lysed with a buffer containing protease and phosphatase inhibitors (25 mM Tris-HCl, pH 7.4; 150 mM NaCl; 1% Nonidet P-40; 1 mM EDTA; and 5% glycerol with Pierce Halt Protease Inhibitor). Protein ([…]) from total lysate was loaded and separated on a 4-20% SDS-PAGE and transferred overnight to polyvinylidene difluoride membranes. Membranes were incubated with primary Ab for 12 hours at 4° C. in blocking buffer, 5% w/v nonfat dry milk in TBS, and 0.1% Tween 20. The following primary antibodies were purchased from Santa Cruz Biotechnology (Santa Cruz, CA): anti-perforin rabbit polyclonal (1:250), anti-granzyme B mouse monoclonal (1:200), anti-IFN-γ mouse monoclonal (1:250), anti-Snail (1:200), anti-Slug (1:200), and anti-Twist. Anti-E-cadherin (1:250), anti-N-cadherin (1:250), and anti-NKG2D goat polyclonal (1:500) were all from Abcam (Cambridge, MA). Membranes were washed and incubated with peroxidase-conjugated secondary Abs (1:5000; Vector Laboratories) for 1 hour at room temperature. Membranes were incubated with ECL western blot chemiluminescence reagent (Pierce) and exposed to x-ray film, which was developed, and densitometry was performed using Image J analysis software (National Institutes of Health). Each protein was normalized to corresponding intensities for β-actin.
as §1

The test system of a further assay is MDA-MB-231 cells. Kind of assay: Clonogenic (colony formation) assay. The format is cell-based, human. Particulars: 100 μM, 14 days. On the procedure:
The clonogenic assay was performed as previously described (25). Briefly, cells were suspended in culture media and were seeded into 6-well tissue culture plates at a density of 1,000 cells/well, allowed to adhere overnight, and treated with vehicle alone or a 100 μM concentration of beta-adrenergic and opioidergic drugs alone or in combination. Fresh medium and drugs were changed every 3 or 4 days for 14 days. At the end of the experiment, the cell colonies were stained with 0.5% crystal violet, subjected to image acquisition, and quantified in Adobe Photoshop (Adobe Systems, San Jose, CA). The crystal violet-stained cell colonies were extracted with 10% acetic acid and used for optical density (OD) measurements for determination of colony growth. Drug effects on these cells were determined in duplicate wells in three independent experiments.

The values that follow come from US20240390490A1, “PHARMACEUTICAL COMPOSITIONS FOR THE TREATMENT OF CANCERS” (Rutgers, The State University of New Jersey, priority 2021, published 2024).

Turning to `CC(C)NCC(O)COc1cccc2ccccc12` (stereo not drawn) [PRO, propranolol], in assay [1], the “percentage of CD161+ NK cells in the tumor tissues” value (“percentage of CD161+ NK cells” for short) is “increased” and the “percentage of CD163+ macrophages in the tumor tissues” value (“percentage of CD163+ macrophages” below) is reported as “decreased”. Moreover, the cell invasion entry in assay [2] is “decreased cell invasion”. Further, in assay [3], the “level of E-cadherin in tumors” value is reported as “increase”; the “level of N-cadherin in tumors” value is recorded as “decrease”; the “levels of Snail, Slug, and Twist in tumors” value was “reduced”; the “level of CC3 in tumor tissue” value is given as “increased”. For the same compound, the “levels of Bcl-xL and Bcl-2 in tumor tissue” value (from here on “levels … in tumor tissue”) in assay [3] is given as “decreased”. Besides, in the assay on MDA-MB-231 cells, the colony formation entry is reported as “moderate inhibition”.
As for `CC1(C)SSC(C)(C)[C@@H](NC(=O)[C@@H](N)Cc2ccc(O)cc2)C(=O)NCC(=O)N[C@@H](Cc2ccccc2)C(=O)N[C@H]1C(=O)O` [DPDPE, (D-Pen^2, D-Pen^5)-enkephalin], in assay [1], the “percentage of CD161+ NK cells” value is recorded as “increased” and the “percentage of CD163+ macrophages” value is “decreased”. Also, the cell invasion entry in assay [2] was “decreased cell invasion”. Besides, in assay [3], the “level of E-cadherin in tumors” value is listed as “increase”; the “level of N-cadherin in tumors” value is reported as “decrease”; the “levels of Snail, Slug, and Twist in tumors” value is given as “reduced”; the “level of CC3 in tumor tissue” value is recorded as “increased”. The “levels … in tumor tissue” value in assay [3] was “decreased”. Also, the colony formation entry in the assay with MDA-MB-231 cells was “moderate inhibition”.
Turning to `O=C1CC[C@@]2(O)[C@H]3Cc4ccc(O)c5c4[C@@]2(CCN3CC2CC2)[C@H]1O5` [NTX, 17-(cyclopropylmethyl)-4,5α-epoxy-3,14-dihydroxymorphinan-6-one], in assay [1], the “percentage of CD161+ NK cells” value is recorded as “increased” and the “percentage of CD163+ macrophages” value is “decreased”. In addition, the cell invasion result in assay [2] is reported as “decreased cell invasion”. Further, in assay [3], the “level of CC3 in tumor tissue” value is “increased”; the “levels … in tumor tissue” value was “decreased”. For the same compound, the colony formation result in the assay with MDA-MB-231 cells is listed as “moderate inhibition”.
